# Results as given in patent US20150056209A1, “PEPTIDE MIMOTOPES TO OXIDATION SPECIFIC EPITOPES” (The Regents of the University of California, priority 2012, published 2015).
# Legend:
# [1] = system: LRO4; test: Phage ELISA, binding of phage clones to coated LRO4; set-up: species or system murine; conditions: 10^10 pfu/ml, OD 405-490 nm
# Description: (§1) Phage ELISA was performed as described by NEB with minor modifications. Ninety six-well ELISA plates (Nunc Maxisorp) were coated with 5 μg/mL LRO4 mAb or control IgM mAb in NaHCO3 buffer (pH 8.6) at 50 μL/well ON at 4° C. Wells were washed with TBS containing 0.5% Tween 20 and then blocked with blocking buffer (TBS-T containing 1% BSA) at 200 μL/well for 1 hour at RT. After further washing, 10^10 pfu/ml of phage amplificates diluted in blocking buffer were added to the wells at 50 μL/well for 2 hours at RT. Wells were washed again, and an HRP-labeled anti-M13 mAb conjugate (no. 27-9421-01; GE Healthcare, Amersham, UK) diluted 1:1,000 in blocking buffer was added for 1 hour at RT followed by the addition of an 2,2′-azino-bis(3-ethylbenzothiazoline-6-sulphonic acid) (ABTS) (Sigma-Aldrich) substrate solution for 1 hour at RT. The binding reactivity of selected phage clones was measured at OD 405-490 nm using a BioTek Synergy 2 plate reader.
# [2] = system: LRO4; test: Competitive phage ELISA, phage binding to LRO4 in presence of MDA-LDL; set-up: species or system murine; conditions: in the presence of 50 μg/mL MDA-LDL
# Description: For competitive phage ELISA, plates were coated with 5 μg/mL LRO4 and binding of 25 μL of phage solution at 2×10^10 pfu/mL was tested in the presence of 25 μL of MDA-LDL at 100 μg/mL. Bound phages were detected as described above and data expressed as values obtained in presence of competitor (B) divided by the values obtained in the absence of competitor (B0). A reciprocal competition assay was performed in which 50 μL of 5 μg/mL MDA-LDL was coated on microtiter wells, and binding of LRO4 that was preincubated for 30 min at RT with a solution containing either no or 1×10^10 pfu/mL phages with or without peptide was tested by chemiluminescent ELISA.
# Table 2A-B. Binding characteristics of MDA-phagotopes. Sequences and binding characteristics of selected phagotopes from (A) the Ph.D.-12 and (B) the Ph.D.7C7 libraries, respectively. Individual phages were selected and amplified after the third round of biopanning, and binding to an isotype control IgM, LRO4, and LRO4 in the presence of 50 μg/mL MDA-LDL was measured by phage ELISA, as described in Methods. Numbers indicate OD values or for inhibition studies the fraction of OD values obtained in the absence and presence of soluble MDA-LDL (B/B0). Sequences indicate amino acid residues in peptide sequences that were deducted from the DNA sequence of each phagotope. “X” indicates an unidentified amino acid at this position. * for clones with identical sequence representative data of one clone are provided. (SEQ ID NOs:6-37)
# [3] = system: isotype control IgM; test: Phage ELISA, binding of phage clones to isotype control IgM; conditions: 10^10 pfu/ml, OD 405-490 nm
# Description: Briefly, LRO4 or a control isotype anti-KLH IgM Ab (C48-6; BD Bioscience-Pharmingen, USA) were coated in buffer containing 0.1 M NaHCO3 (pH 8.5) on ELISA plates (Nunc Maxisorp, Roskilde, Denmark) overnight (ON) at 4° C. at a concentration of 100 μg/ml for the 1st, 50 μg/ml for the 2nd, and 10 μg/ml for the 3rd biopanning round. The next day, wells were washed with TBS containing 0.05% v/v Tween 20 (TBS-T) and incubated with blocking buffer containing 0.1M NaHCO3 (pH 8.6) and 5 mg/mL bovine serum albumin (BSA) for 1 hour at room temperature (RT). After further washing with TBS-T, 10 μL of a library solution (containing 2×10^12 phages) diluted in 100 μl of blocking buffer were first added to wells coated with control IgM (negative selection) and then unbound phages were transferred to wells coated with LRO4 (positive selection) and incubated at RT. The incubation time for negative or positive selection was reduced from 60 min for the 1st round to 30 min for the 2nd as well as 3rd biopanning round. Thereafter, plates were washed 5 times with TBS-T to remove unbound phages. To further elute nonspecifically bound phages, wells were incubated with 100 μL of 100 μg/ml of native LDL for 1 hour at RT. After washing up to 5 times with TBS-T, bound phages were eluted with 100 μL of elution buffer containing 0.2 M glycine-HCl (pH 2.2) and 1 mg/mL BSA. Eluates were transferred to microfuge tubes and neutralized with 15 μL of 1 M Tris-HCL (pH 9.1). The eluted phages were then titrated and amplified for the next round of panning. The 2nd and 3rd biopanning round was carried out using amplified eluates from the first and second round as input phages, respectively. To remove nonspecifically bound phages and to increase the affinity in the subsequent biopanning rounds, wells were washed 15 and 30 times with 0.1% TBS-T in the 2nd and 0.5% TBS-T in the 3rd rounds of biopanning, respectively. In the last biopanning round, LRO4-bound phages were competitively eluted with increasing concentrations (3-150 μg/mL) of MDA-LDL diluted in blocking buffer followed by elution using elution buffer.
# as §1
# [4] = Table 2A, Ph.D.-12 library clones
# [5] = Table 2B, Ph.D.7C7 library clones
Substance,"Binding of phages to LR04 [1, 4]","Inhibition of binding to LR04 (B/Bo) [2, 4]","Binding of phages to control IgM [3, 4]","Binding of phages to LR04 [1, 5]","Inhibition of binding to LR04 (B/Bo) [2, 5]","Binding of phages to control IgM [3, 5]"
DWAPHFT [Cb2],–,–,–,1.0 OD,0.03,0.2 OD
"ESWTNSWAHYFG [A36, B41, M35]",1.16 OD,0.14,0.03 OD,–,–,–
GWGNKTPSQDVH [A39],1.19 OD,0.19,0.05 OD,–,–,–
HQLSNKDEQTPQ [A33],0.63 OD,0.14,0.05 OD,–,–,–
HRMTNAMHHFMG [A38],0.64 OD,0.10,0.21 OD,–,–,–
HSWSNYWGHQHA [A32],0.98 OD,0.18,0.02 OD,–,–,–
KNSXQPL [Ca4],–,–,–,0.9 OD,0.13,0.1 OD
NNQNMPL [Cb9],–,–,–,0.7 OD,0.02,0.01 OD
"NNRNMPL [Ca59, Cb1]",–,–,–,0.8 OD,0.06,0.1 OD
"NNSHMPL [Ca9, Cb3, Ca8, Ca10]",–,–,–,0.9 OD,0.04,0.2 OD
NNSKMRL [Ca2],–,–,–,0.8 OD,0.12,0.2 OD
NNSNMPL [Cb10],–,–,–,0.6 OD,0.02,0.2 OD
NNSXMPL [Ca6],–,–,–,0.7 OD,0.04,0.0 OD
NNWKMPL [Cb4],–,–,–,0.6 OD,0.02,0.1 OD
"NNWNMPL [Ca1, Ca7]",–,–,–,0.8 OD,0.04,0.1 OD
NNYNMPL [Cb589],–,–,–,0.8 OD,0.03,0.1 OD
NSRTNNSQWTFQ [A34],0.82 OD,0.11,0.11 OD,–,–,–
NSWTNASLSTFH [A40],0.89 OD,0.10,0.04 OD,–,–,–
QNMNNWTLASIM [A31],0.85 OD,0.25,0.08 OD,–,–,–
QNSHMPL [Ca3],–,–,–,0.5 OD,0.04,0.1 OD

# Continued, in another order:
"Binding of phages to LR04 [1, 4]","Inhibition of binding to LR04 (B/Bo) [2, 4]","Binding of phages to control IgM [3, 4]",Substance,"Binding of phages to LR04 [1, 5]","Inhibition of binding to LR04 (B/Bo) [2, 5]","Binding of phages to control IgM [3, 5]"
1.37 OD,0.10,0.03 OD,ADPFSPTNRIPL [M7],–,–,–
1.34 OD,0.15,0.04 OD,ASISNLTLSRFM [M15],–,–,–
1.17 OD,0.20,0.03 OD,ESWNTNSWAMYFG [M2],–,–,–
1.04 OD,0.06,0.03 OD,EVMNNWTLASIM [M30],–,–,–
1.45 OD,0.10,0.04 OD,HRISNYAMELHS [G4],–,–,–
1.56 OD,0.10,0.03 OD,"HRLTNSEQAALP [M3, M5]",–,–,–
1.56 OD,0.20,0.03 OD,"HRMTNNAMDVFM [M6, G10]",–,–,–
1.16 OD,0.10,0.03 OD,"HSLSNIQMATLA [M10, G8]",–,–,–
1.35 OD,0.40,0.03 OD,HSLTNTQMTQLS [M31],–,–,–
1.67 OD,0.25,0.03 OD,QSYTNDDVLRIS [M19],–,–,–
1.57 OD,0.20,0.04 OD,TAVTNSMMERLW [M8],–,–,–
